In PMC4872532, “Development of antithrombotic nanoconjugate blocking integrin α2β1-collagen interactions” (Scientific Reports, 2016):
Where no end group is shown, it is not given here.

Legend:
ICR mice = test: Toxicity assay of inhibitors; type: in vivo; settings: for toxicity: i.v. 2.5 mg/kg, N = 4, 7 days
Protocol: S4. Toxicity Assay of Inhibitors
Eight specific pathogen free (SPF) ICR mice weighing about 18-22 g (HFK Bioscience Co., Ltd., Beijing, China) were randomly divided into two groups (N=4, half males and half females), and then treated with LWWNSYY or L-PGMA NPs (i.v., 2.5mg/10ml/kg) to investigate their toxicity, respectively. After treatment, animals were maintained under standard conditions with food ad libitum and maintained in a 12 h/12 h light/dark cycle at room temperature. Behavior, mortality and any other clinical signs of mice were observed […]
1.Bullock, A. N. et al., Thermodynamic stability of wild-type and mutant p53 core domain. P. Natl Acad. Sci.

[1] = UV-VIS quantification of immobilized LWWNSYY; type: physicochemical; settings: UV-VIS absorption peak at 280 nm; B-PGMA NPs background subtracted
Text: The chemical conjugation of LWWNSYY onto the surface of PGMA-ECH NPs was examined using fourier transform infrared spectra (FTIR) spectroscopy (Fig. 2). […] This indicates successful chemical conjugation of LWWNSYY onto the surface of PGMA-ECH NPs through the opening of epoxy group. UV-VIS spectra further confirmed formation of L-PGMA NPs (Fig. S1 in Supporting Information), with an absorption peak at 280 nm corresponding to the characteristic absorption of tryptophan residues in LWWNSYY. […] The formation of LWWNSYY clusters due to its high hydrophobicity was then expected to be inhibited.
UV-VIS spectra of L-PGMA NPs were obtained by Lambda 35 (Perkin Elmer, USA) UV-VIS spectrophotometer. Spectra were collected within a range of 200–600 nm. The nanoparticles without conjugated LWWNSYY were denoted as B-PGMA NPs. That is, the value of B-PGMA NPs with the same concentration was subtracted as background in analysis. Data were representative of three repeated experiments.

[2] = target: Triple Helical Collagen Peptide (GPO)2GFOGER(GPO)3; test: Isothermal titration calorimetry, binding to triple helical collagen peptide; settings: L-PGMA in deionized water containing normal saline concentration, 600 μM collagen peptide, 10 °C, mean ± S.D., N = 3
Protocol: ITC experiments were performed to investigate the thermodynamic binding characteristics of L-PGMA NPs on the triple helical collagen peptide (Fig. 4A). The triple helix collagen peptide containing GFOGER recognition sequence was titrated with L-PGMA NPs. The data of LWWNSYY was also examined and used as control.
(§1) Glycidyl methacrylate (97%) and ethylene glycol dimethacrylate (97%) were purchased from Sigma-Aldrich (St. Louis, MO, USA). Dimethy sulfoxide (DMSO), epichlorohydrin (ECH), EG and sodium borohydride (NaBH4) were of analytical grade from Guangfu Fine Chemical Research Institute (Tianjin, China). The triple helix collagen peptide, with an amino acid sequence of (GPO)2GFOGER(GPO)3, was purchased as HPLC-purified powder with a purity of >95% from ChinaPeptides (Shanghai, China). LWWNSYY was obtained as lyophilized powder with a purity of >95% from GL Biochem (Shanghai, China). Sheep blood containing 0.4% sodium citrate (w/v) was purchased from Ruite Bio-tec (Guangzhou, China). Bovine serum albumin (BSA) was purchased from Sigma (St. Louis, MO, USA). ρ-nitrophenylphosphate (PNPP) was purchased from Aladdin Industrial Corporation (Shanghai, China) with a purity of 98%. Sodium chloride (NaCl), tris (hydroxymethyl) aminomethane (Tris) and other reagents were of analytical grade from Sangon Biotech Co., Ltd. (Shanghai, China).
The binding between collagen peptide and LWWNSYY in normal saline or normal saline containing 25% (v/v) EG was investigated following the procedure reported previously, the concentration of collagen peptide in the cell was 80 μM, while the concentration of LWWNSYY was 1.0 mM. To investigate the binding between collagen peptide and L-PGMA NPs in normal saline, the concentration of L-PGMA NPs in the cell was 48 μM (in full text, the concentration of L-PGMA NPs represents the concentration of conjugated LWWNSYY on the surface of L-PGMA NPs in solution), while the concentration of collagen peptide was 600 μM. All samples were treated by 20 min degassing prior to the examination. Isothermal calorimetric titrations were performed in a titration mode with a 1.425 mL sample cell, using a VP isothermal titration calorimeter (MicroCal, Northampton, MA). 8 μL LWWNSYY was injected over 16 s for 30 times, with a spacing time of 350 s between injections. The reference power was set to 20 μcal/s, and the stirring speed was 307 rpm. To reserve the active triple helical form of collagen peptide, the temperature in ITC cell was kept at 10 °C. […] Titration data were analyzed using MicroCal Origin (Version 7.0). […] Consequently, the integrated enthalpy was calculated from the single-site binding model. Thermodynamics parameters, including Kd, ΔH, TΔS, and Gibbs free energy (ΔG) were calculated.

[3] = Particle size and zeta potential by dynamic light scattering; type: physicochemical; settings: Zetasizer Nano, deionized water, 25 °C, mean ± S.D., N = 3
Protocol: Particle size and zeta potential were measured by dynamic light scattering (DLS) in deionized water at room temperature, as shown in Table 1.
The samples were submitted to size or zeta analysis by injecting them into disposable DLS or zeta potential cuvettes at 25 °C. The results were reported as the average of three repeated experiments.

[4] = tested on: platelet adhesion on collagen peptide; test: Platelet solid-phase adhesion assay on collagen peptide; type: cell-based, sheep; settings: for IC50, concentration required to inhibit half of the specific binding (platelet adhesion): collagen peptide coated 100 μg/mL, inhibitor in normal saline 1 h at 18 °C, washed, platelets 1 h at 18 °C, p-nitrophenyl phosphate read-out 405 nm, L-PGMA NPs concentration = conjugated LWWNSYY
Text: as §1
Adhesion was determined colorimetrically, following the procedure reported previously. Anticoagulated sheep blood was obtained by the addition of 0.4% sodium citrate (w/v), allowing about five days for the transportation before the tests. Platelet-rich plasma (PRP) was obtained as the supernatant after centrifugation of the anticoagulated sheep blood at 180 g for 20 min at 4 °C. Then platelet was obtained as the precipitate after centrifugation of PRP at 1000 g for 10 min at 4 °C[12], which was suspended in adhesion buffer (TBS containing 0.1% BSA) to prepare platelet suspension buffer for further use. Microtiter HB 96-well plates (Costar, Corning Inc., USA) were coated with 100 μL collagen peptide (100 μg/mL) dissolved in 0.01 M acetic acid for 4 h at 18 °C. Reagents without adhesion were discarded, and the wells were washed by 200 μL TBS (50 mM Tris-HCl, 140 mM NaCl, 2 mM Mg^2+, pH 7.4) for three times. Then, wells were blocked for 1 h by 100 μL of TBS containing 50 mg/mL BSA. After three washes by 200 μL TBS, 100 μL LWWNSYY or L-PGMA NPs with different concentrations dissolved in normal saline was applied to each well and incubated at 18 °C for 1 h. 100 μL platelet suspension buffer were added to each well after three washes to remove non-reacted inhibitors, and plates were incubated at 18 °C for 1 h. Unbound platelets were then discarded, and the wells were washed as above. 150 μL lysis buffer (0.1 M citrate, pH 5.4, containing 0.1% Triton X-100 and 5 mM p-nitrophenyl phosphate) was added to each well. Reaction was terminated after 1 h by addition of 100 μL NaOH (3 M), and plates were read at 405 nm using an automated plate reader (ELX800, BioTek Instruments Inc., USA). […] The effect of binding to BSA or B-PGMA NPs was eliminated. According to the standard above, the absorption value was transformed to inhibition ratio. Data was presented as the mean ± S.D. from three independent experiments (n = 8). Dose-response inhibition ratio curves were fitted using the Hill equation[48][49]. The concentration of LWWNSYY or L-PGMA NPs required to inhibit half of the specific binding, IC50, and the maximum inhibition ratio, IRmax, were calculated based on the Hill equation[50].

[5] = tested on: carotid artery thrombus formation; test: FeCl3-induced carotid artery thrombus formation; type: in vivo, Wistar rats; settings: 0.625 mg/kg i.v., N = 5
Text: Adult SPF male Wistar rats weighing 180–220 g were purchased from HFK Bioscience Co. (Beijing, China), and housed in a standard temperature-, light-, and humidity-controlled animal enclosures at the institute of Radiation Medicine in Chinese Academy of Medical Sciences. All rats had free access to food and water, and were acclimated for at least 1 week. The Institute of Radiation Medicine Animal Care and Use Committee approved the protocols for the care and use of animals, and all animal procedures were carried out in accordance with the approved guidelines.
FeCl3-induced arterial injury in rats was performed following the procedure reported previously. Rats were randomly divided into 4 groups (N = 5) and fasted for 12 h before the surgery. They were anesthetized with 10% chloral hydrate (3 mL/kg, i.p.) and placed on a 37 °C warming pad throughout the experiment. The right carotid artery was exposed by blunt dissection with minimal blood loss, and a Doppler flow probe (Transonic T400, USA) was attached to the artery to monitor blood flow continuously. […] After 20 min, the filter paper was removed, and the vessel was washed with normal saline. The blood flow was monitored continuously for 30 min after injury. At the end of 30-minute period, thrombus size was evaluated by the weight. Immediately after the experiment, the rats were sacrificed by cervical dislocation while still under deep anesthesia. Data are expressed as mean ± S.D. Data were analyzed by one-way ANOVA, followed by Duncan’s post hoc test. Statistical significance was set at p < 0.05.

Triple Helical Collagen Peptide (GPO)2GFOGER(GPO)3, sequence (as listed by the source): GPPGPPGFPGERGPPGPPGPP

## LWWNSYY [L-PGMA NPs, LWWNSYY-PGMA nanoparticles conjugate; LWWNSYY immobilized to the surface of poly(glycidyl methacrylate) nanoparticles]
ICR mice; 2.5mg/10ml/kg i.v., N = 4 (half males, half females), observed 7 days
  clinical signs: no abnormal clinical signs
ICR mice
  toxicity: little toxicity
[1]
  immobilized LWWNSYY: 3.2 ± 0.2 mg in 100 mg of PGMA NPs
[2]; 48 μM L-PGMA NPs in cell (concentration of conjugated LWWNSYY), single-site binding model
  Kd: 3.45 ± 1.06 µM
[2]; 48 μM L-PGMA NPs in cell
  TΔS: 8.44 ± 0.37 kcal/mol
  ΔG: -7.09 ± 0.16 kcal/mol
  ΔH: 1.35 ± 0.21 kcal/mol
[3]; DLS
  Hydrodynamic diameter: 106.6 ± 0.91 nm
  Polydispersity index: 0.06 ± 0.02
[3]
  Zeta potential: −32.9 ± 0.57 mV
[4]; 1–50 μg/mL LWWNSYY, 0.1–40 μg/mL L-PGMA NPs (conjugated LWWNSYY)
  plateau of inhibition ratio curve, platelet adhesion: 100%
[4]; Hill fit, 1–50 μg/mL LWWNSYY, 0.1–40 μg/mL L-PGMA NPs (conjugated LWWNSYY) in normal saline, 18 °C, mean ± S.D., N = 8
  maximum inhibition ratio (IRmax) of platelet adhesion: 102.6 ± 3.4%
[4]; Hill fit, mean ± S.D., N = 8
  IC50, concentration required to inhibit half of the specific binding (platelet adhesion): 1.83 ± 0.29 µg/mL
[4]; decreased to this fraction of free LWWNSYY IC50
  IC50 relative to that of free LWWNSYY: 1/3
[5]; 15 min before 12% FeCl3, 30 min after injury, mean ± S.D., control 7.41 ± 1.75 mg, LWWNSYY p < 0.01, L-PGMA NPs p < 0.001 compared to control, no significant difference between the two
  thrombus weight: 3.70 ± 0.45 mg
[5]; 15 min before 12% FeCl3
  occlusion at 30 min: No occlusion was observed
[5]; 15 min before 12% FeCl3, at end of 30-min period, p < 0.001 compared to control or LWWNSYY group
  mean blood flow, relative to initial blood flow: about 85%
[5]; 30 min after injury
  reduction of thrombus weight compared to the control group: ~50%
[5]; 30 min after injury, difference not significant
  reduction of thrombus weight compared to LWWNSYY group: ~15%
[5]; compared to the control or LWWNSYY group
  mean blood flow rate at all time points: significantly higher

## LWWNSYY [LWWNSYY]
ICR mice
  toxicity: little toxicity
[4]; Hill fit, mean ± S.D., N = 8
  IC50, concentration required to inhibit half of the specific binding (platelet adhesion): 5.66 ± 1.13 µg/mL
